Data taken from paper PMC11965660, “Isobavachalcone ameliorates Alzheimer disease pathology by autophagy-mediated clearance of amyloid beta and inhibition of NLRP3 inflammasome in primary astrocytes and 5x-FAD mice” (Frontiers in Pharmacology, 2025).
Entries after “also recorded” stand apart in the source; their conditions may differ. Like-named read-outs stand apart in the source and are kept apart here.

Legend:
[1] = tested on: autophagy pathway proteins; test: Immunoblotting of autophagy pathway proteins in primary astrocytes; assay type: cell-based, C57BL/6J mice
Protocol: Primary astrocytes were cultured from C57BL/6J (Jax:000664) mice pups with the approval of Institutional Animal Ethics Committee (IAEC) of CSIR-Indian Institute of Integrative Medicine (IIIM), Jammu, under IAEC number 287/80/2/2022 and 305/81/8/2022. The astrocytes were isolated from the brain of 3–4 days-old mice pups and were grown in 10% FBS-supplemented DMEM media. Briefly, pups were sacrificed through decapitation and sterilized with 70% ethanol. Brain was exposed and isolated. Olfactory lobes and cerebellum were removed with fine blade. The cortical region separated was collected in incomplete media (media without fetal bovine serum) and cut into small pieces. After that, these cortices were incubated at 37°C in 0.25% trypsin for 30 min, with gentle shaking after every 10 min. Trypsin activity was neutralized with complete media and cells were collected using a 70-micron cell strainer followed by centrifugation at 300 g for 5 min. The pellet was dissolved in fresh media and cells were grown in cell culture flasks and were maintained at 37°C in a CO2 incubator. Microglia and oligodendrocytes were separated from the underlying astrocyte layer after 6-7 days by shaking the flask for 6 h at 240 rpm. Cultures astrocytes within 2-4 passage were used for all the experiments.
Cellular lysates were prepared using radio immuno precipitation assay (RIPA) buffer for protein analysis. Briefly, the cell pellet was dissolved in RIPA buffer containing sodium fluoride, sodium orthovanadate, phenyl methyl sulfonyl fluoride (PMSF) and 1% protease inhibitor cocktail for 1 h with vertexing sample every 15 min. The supernatant was collected after high-speed centrifugation of samples for 20 min at 4°C. For analysis of proteins in mice hippocampi, the hippocampi isolated from mice brains was immediately washed with saline and stored in liquid nitrogen. For lysates preparation, tissue was homogenized in RIPA buffer substituted with sodium fluoride, sodium orthovanadate, phenyl methyl sulfonyl fluoride and 1% protease inhibitor cocktail. Total protein was measured using Bradford assay. Proteins were separated using SDS-PAGE and then transferred from gel to PVDF membrane. The protein of interest was labeled with a specific primary antibody overnight at 4°C. Further, the blot was incubated with corresponding HRP-conjugated secondary antibody for 1 h at room temperature. The band were visualized in the Genaxy Chemi Doc imaging system (Make: Syngene, Maryland, USA; Model: G: BOX, XT-4). Densitometry analysis of all the immunoblots was performed by using ImageJ software. Band density of proteins was normalized with β-actin. The phosphorylated proteins were normalized with their total forms.

IL-1β = IL-1β in mice cortex by ELISA; assay type: in vivo, 5x-FAD mice; details: 25 and 50 mg/kg, vs 5x-FAD control
Excerpt: After the termination of experiments, the supernatant was collected and analyzed for levels of cytokines. For measuring IL-1β and IL-18, supernatant collected after NLRP3 inflammasome activation as mentioned above, was subjected to ELISA. For detection of IL-1β in mice cortex, mice cortices were isolated and homogenized in RIPA buffer to measure IL-1β in homogenates. The manufacturer’s protocol was followed for measuring the cytokines. The levels of measured cytokines were normalized with the total protein content of the cells. For total protein content of cell pellet lysed with lysis buffer (0.2 N NaCl and 1% Triton-X 100) was measured.
Hemizygous 5x-FAD transgenic mice (B6.Cg-Tg(APPSwFlLon, PSEN1*M146L*L286V) 6799Vas/Mmjax; MMRRC Strain: 034848-JAX) on congenic C57BL/6J genetic background were used for experiments. The 5x-FAD mice were genotyped using APP-specific qPCR probes to detect the transgene as per the protocol of Jackson Laboratory. Six months old 5x-FAD mice were randomly divided into three groups (n = 5), based on their body weights, with three males and two females in each group. We used mixed-cohort of males and females for our study to exclude any gender biased effect of IBC. Also, AD symptoms are more pronounced in females than in males ([Aggarwal and Mielke, 2023]), making it possible that males and females respond differently to the drug and treatment. […]

[2] = Pharmacokinetic analysis in plasma and brain; assay type: in vivo; details: C57BL/6J mice
Protocol: C57BL/6J (Jax:000664) male mice were used for pharmacokinetic analysis of IBC. Mice were randomly sorted into 9 groups (n = 5). 30 mg/kg oral dose of IBC (1% DMSO +70% PEG-200 + 29% water) was given to mice. Blood or brain samples were collected at 0, 0.25, 0.5, 1, 2, 4, 6, 8 and 24 h. The plasma (100 µL) sample was processed with ethyl acetate (200 µL) containing IS (150 ng/mL) and centrifuged at 300 g for 10 min. The organic layer was separated and dried in a vacuum, reconstituted with acetonitrile, and analyzed by LC-MS/MS [SRM transition of IBC and IS (Phenacetin) is 325.2 & gt; 149.0 and 180.2 & gt; 110.2 in Positive mode]. Brain homogenate was prepared using the weighted amount of brain tissue in water at the concentration level of 350 mg/mL and processed similarly to plasma samples.

[3] = male, mouse, blood plasma, 30 mg/kg oral
[4] = male, mouse, brain, 30 mg/kg oral

In the case of `CC(C)=CCc1c(O)ccc(C(=O)/C=C/c2ccc(O)cc2)c1O` [IBC, isobavachalcone], the ATG5 level ([1]; 24 h) is reported as “upregulated”, the ATG7 level ([1]; 24 h) is reported as “upregulated” and the BECN1 expression ([1]; 24 h) is reported as “did not show any change”. The FIP200 phosphorylation ([1]; 24 h) was “increased phosphorylation”, the MTOR level ([1]; 24 h) was “no change” and the ULK1 phosphorylation ([1]; 24 h) was “phosphorylated at Ser 317”. The “pLKB1 (Ser 428) level” value ([1]; 24 h) was “no change”, the “AMPK phosphorylation (Thr 172)” value ([1]; 24 h, 5, 10 and 20 μM) was “concentration-dependent increase” and the BCL2 level ([1]; 24 h, 5, 10 and 20 μM) was “marked decline”. For the same molecule, the LC3B-II level ([1]; 24 h, 5, 10 and 20 μM) was “significant increase”, the “pCAMKK2 (Ser 511) level” value ([1]; 24 h, 5, 10 and 20 μM) was “significantly upregulated” and the SQSTM1 level ([1]; 24 h, 10 and 20 μM) was “reducing levels”. For the same molecule, the “IL-1β level in cortex” value (IL-1β) was “highly significant decline”, the Cl ([2]; blood plasma, 30 mg/kg oral) was 50 ± 7 L/h/kg and the Vd ([2]; blood plasma, 30 mg/kg oral) was 355 ± 81 L/kg. For the same molecule, the AUC0-t ([2]; brain, 30 mg/kg oral) was 72 ± 7 ng·h/g, the “AUC0-∞” value ([2]; brain, 30 mg/kg oral) was 79 ± 7 ng·h/g and the Kp ([2]; male, mouse, brain and plasma, 30 mg/kg oral, read-out: brain-to-plasma ratio) was 0.12 to 0.16. It also gave an AUC(0-inf) [2, 3] of 637 ± 74 ng·h/mL, a Cmax [2, 3] of 208 ± 46 ng/mL and a Tmax [2, 3] of 36 ± 6 min. It also gave a half-life [2, 3] of 336 ± 90 min, an AUC0-t ([2]; male, mouse, blood plasma, 30 mg/kg oral, read-out: AUC0-t) of 548 ± 59 ng·h/mL and a Cmax [2, 4] of 34 ± 4 ng/g. For the same molecule, the Tmax [2, 4] was 36 ± 6 min, the half-life [2, 4] was 108 ± 24 min and the blood-brain barrier penetration ([2]; single dose 30 mg/kg p.o., 30 mg/kg) was “low penetration; also recorded: low brain availability”.
